# Data published in PMC10385743.
# Several values for one entry are separate records, joined by “and”; a condition that tells them apart may be missing. Identical values can stand only once.
# Experiments:
# [1] = test system: DENV serotype 2 (strain 16681) subgenomic replicon; assay: microbe, parasite or virus in culture; format: cell-based, dengue virus; conditions: 72 h; luciferase; mean ± SD; read-out: Huh7-D2 (DENV-2 Replicon) EC50
# [2] = test system: rat skeletal myoblast L6 cells; assay: Cytotoxicity against cultured L6 cells (resazurin); conditions: read-out: L6 Cells CC50; mean of triplicate experiments ± SEM
# [3] = test system: HCV GT 3a (strain S52) subgenomic replicon; assay: microbe, parasite or virus in culture; format: cell-based, hepatitis C virus; conditions: 72 h; luciferase; mean ± SD; read-out: Huh7.5-3a(S52) (HCV Replicon 3a) EC50
# [4] = test system: YFV (strain 17D) subgenomic replicon; assay: microbe, parasite or virus in culture; format: cell-based, yellow fever virus; conditions: read-out: Huh7-YF (YFV Replicon 17D) EC50; 72 h; luciferase; mean ± SD
# Huh5-2 cells = assay: Cytotoxicity in Huh5-2 replicon cells (intracellular ATP levels); conditions: read-out: Huh5-2 (HCV Replicon 1b) CC50; 72 h; ATP levels; mean ± SD; * highest concentration used 10 μΜ
# [5] = test system: bloodstream form T. b. brucei (strain 221)
# [6] = test system: T. cruzi (CL Brener strain) epimastigotes; conditions: read-out: T. cruzi EC50; epimastigotes; mean of triplicate experiments ± SEM
# [7] = test system: HCV GT 4a (strain ED43) subgenomic replicon; assay: microbe, parasite or virus in culture; format: cell-based, hepatitis C virus; conditions: 72 h; luciferase; mean ± SD; read-out: Huh7.5-4a(ED43) (HCV Replicon 4a) EC50
smiles,measurement,setting,value
"CC1CCC2(NC(=O)N(CC(=O)NO)C2=O)c2ccccc21 [Compound 35, Ν-(Hydroxy)-2-((4R,4′R)/(4S,4′S)-4′-methyl-2,5-dioxo-3′,4′-dihydro-2′H-spiro[imidazolidine-4,1′-naphthalene]-1-yl)acetamide]",EC50,[1],> 10000 nM
same,CC50,[2],> 200000 nM and 224000 nM
same,EC50,[3],770 ± 30 nM
same,EC50,[4],> 10000 nM
same,CC50,Huh5-2 cells,> 200000 nM
same,EC50,"[5]; read-out: T. brucei EC50, cultured bloodstream form, mean of triplicate experiments ± SEM",560 ± 70 nM
same,EC90,"[5]; read-out: T. brucei EC90, cultured bloodstream form, mean of triplicate experiments ± SEM",860 ± 190 nM
same,SI (CC50 for L6 cells / EC50 for T. brucei),[5]; selectivity index,400
same,EC50,[6],> 30000 nM
same,EC50,[7],410 ± 20 nM
